Test results as given in patent US10285989B2, “Pyrimidinone amide compounds as PDE2 inhibitors” (Merck Sharp & Dohme Corp., priority 2015, dated 2019).
Like-named read-outs stand apart in the source and are kept apart here.

Legend:
[1] = molecular target: P-glycoprotein (P-gp, rat Mdr1a) (Rattus norvegicus, UniProt Q6PSM0); assay: P-gp transport, experimental BA/AB ratio, rat LLC-Mdr1a; type: in vitro ADME; details: LLC-PK1; rat LLC-Mdrla; 1 μM substrate concentration
Text: (§1) See Doan et al. “Passive permeability and P-glycoprotein-mediated efflux differentiate central nervous system (CNS) and non-CNS marketed drugs”, J. Pharm. Exper. […] Desirable human BA/AB ratio is less than 2.0. […] See, for example, Desai, et al. Integration of in Silico and in Vitro Tools for Scaffold Optimization during Drug Discovery: Predicting P-glycoprotein Efflux” Mol. Pharmac.

Rhesus PDE2A3 = Rhesus PDE2A3 (Macaca mulatta, UniProt B3VTJ2); assay: PDE2 fluorescence polarization (IMAP FP) inhibition assay, rhesus PDE2A3; type: biochemical, rhesus macaque
P-glycoprotein (P-gp) = P-glycoprotein (P-gp) (Homo sapiens (Human), UniProt P08183); assay: P-gp transport, experimental BA/AB ratio, human; type: in vitro ADME; details: LLC-PK1, 1 μM substrate concentration
Text: as §1

human PDE2A1 = human PDE2A1 (Homo sapiens (Human), UniProt O00408); assay: PDE2 IMAP FP inhibition assay, human PDE2A1 (selectivity panel format); type: biochemical
Outline: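 IMAP fluorescence polarization assay; substrate 50 nM FAM-cAMP with 1000 nM cGMP, enzyme at ~20% conversion, in 10 mM Tris pH 7.2, 10 mM MgCl2, 1 mM DTT, 0.01% Tween-20. 60 min room temperature, stopped with IMAP binding reagent, 1 h, then parallel/perpendicular fluorescence read.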

[2] = Lab B, read-out: Rhesus PDE2 Ki (nM) - Lab B
[3] = Lab B, read-out: Human PDE2 Ki (nM) - Lab B
[4] = Lab A, read-out: Rhesus PDE2 Ki (nM) - Lab A
[5] = Lab A, read-out: Human PDE2 Ki (nM) - Lab A

Sequence of Rhesus PDE2A3 (B3VTJ2 1-941): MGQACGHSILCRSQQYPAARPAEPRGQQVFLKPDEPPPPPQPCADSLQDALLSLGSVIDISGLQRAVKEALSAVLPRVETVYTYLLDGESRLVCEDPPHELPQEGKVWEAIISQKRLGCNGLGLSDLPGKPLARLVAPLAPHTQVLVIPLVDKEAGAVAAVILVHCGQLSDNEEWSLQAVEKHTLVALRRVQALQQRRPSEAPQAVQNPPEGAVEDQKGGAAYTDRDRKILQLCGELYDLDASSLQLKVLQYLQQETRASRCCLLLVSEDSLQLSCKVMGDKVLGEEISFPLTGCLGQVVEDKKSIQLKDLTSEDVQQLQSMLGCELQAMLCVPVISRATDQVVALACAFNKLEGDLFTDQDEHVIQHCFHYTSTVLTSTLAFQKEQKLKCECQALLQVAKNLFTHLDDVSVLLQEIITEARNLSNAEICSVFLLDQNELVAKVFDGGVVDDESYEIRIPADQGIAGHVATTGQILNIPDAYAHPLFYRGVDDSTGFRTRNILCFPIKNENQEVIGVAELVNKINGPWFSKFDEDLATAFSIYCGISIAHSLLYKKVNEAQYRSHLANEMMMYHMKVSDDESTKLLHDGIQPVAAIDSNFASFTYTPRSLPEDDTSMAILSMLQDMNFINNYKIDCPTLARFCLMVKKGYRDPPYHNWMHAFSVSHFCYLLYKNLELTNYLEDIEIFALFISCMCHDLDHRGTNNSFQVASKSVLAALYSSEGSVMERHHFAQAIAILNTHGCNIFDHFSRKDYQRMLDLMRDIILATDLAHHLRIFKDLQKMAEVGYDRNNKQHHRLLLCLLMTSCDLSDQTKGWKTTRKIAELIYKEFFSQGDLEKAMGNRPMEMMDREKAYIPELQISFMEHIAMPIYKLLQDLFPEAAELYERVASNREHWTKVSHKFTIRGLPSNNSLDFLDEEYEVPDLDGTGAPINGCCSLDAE
Sequence of P-glycoprotein (P-gp, rat Mdr1a) (Q6PSM0 1-1272): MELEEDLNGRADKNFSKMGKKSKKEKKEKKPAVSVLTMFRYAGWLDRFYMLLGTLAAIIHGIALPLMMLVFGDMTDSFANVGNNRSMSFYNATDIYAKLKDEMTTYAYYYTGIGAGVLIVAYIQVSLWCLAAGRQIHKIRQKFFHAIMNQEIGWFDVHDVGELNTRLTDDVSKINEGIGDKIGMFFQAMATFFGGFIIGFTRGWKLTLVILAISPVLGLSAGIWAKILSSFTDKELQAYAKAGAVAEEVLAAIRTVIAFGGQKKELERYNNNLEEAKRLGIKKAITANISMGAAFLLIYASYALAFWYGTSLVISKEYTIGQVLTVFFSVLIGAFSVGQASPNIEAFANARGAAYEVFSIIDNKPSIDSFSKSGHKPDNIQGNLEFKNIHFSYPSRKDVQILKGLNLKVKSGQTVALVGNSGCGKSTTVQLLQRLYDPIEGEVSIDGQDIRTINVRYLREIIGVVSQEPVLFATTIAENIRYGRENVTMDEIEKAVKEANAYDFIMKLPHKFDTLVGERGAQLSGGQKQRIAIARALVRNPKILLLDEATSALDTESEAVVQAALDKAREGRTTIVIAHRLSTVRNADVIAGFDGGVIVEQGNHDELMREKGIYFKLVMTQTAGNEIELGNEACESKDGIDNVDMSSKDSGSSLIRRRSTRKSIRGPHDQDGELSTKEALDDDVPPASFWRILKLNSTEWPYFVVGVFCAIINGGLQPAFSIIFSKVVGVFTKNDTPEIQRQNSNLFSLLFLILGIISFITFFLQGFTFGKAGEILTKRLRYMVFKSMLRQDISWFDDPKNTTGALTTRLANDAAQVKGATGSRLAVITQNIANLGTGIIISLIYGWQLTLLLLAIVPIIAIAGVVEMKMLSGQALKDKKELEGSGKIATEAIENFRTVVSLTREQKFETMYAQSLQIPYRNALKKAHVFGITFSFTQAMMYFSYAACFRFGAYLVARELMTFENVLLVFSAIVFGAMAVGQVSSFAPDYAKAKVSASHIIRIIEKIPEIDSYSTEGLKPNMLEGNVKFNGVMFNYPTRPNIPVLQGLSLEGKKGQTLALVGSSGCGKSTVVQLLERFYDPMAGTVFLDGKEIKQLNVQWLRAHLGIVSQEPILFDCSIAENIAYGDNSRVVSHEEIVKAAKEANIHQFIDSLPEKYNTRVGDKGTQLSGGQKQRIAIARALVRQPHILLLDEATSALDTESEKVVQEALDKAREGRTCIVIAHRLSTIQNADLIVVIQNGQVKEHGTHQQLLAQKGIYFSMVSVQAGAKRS
Sequence of P-glycoprotein (P-gp) (P08183 whole entry): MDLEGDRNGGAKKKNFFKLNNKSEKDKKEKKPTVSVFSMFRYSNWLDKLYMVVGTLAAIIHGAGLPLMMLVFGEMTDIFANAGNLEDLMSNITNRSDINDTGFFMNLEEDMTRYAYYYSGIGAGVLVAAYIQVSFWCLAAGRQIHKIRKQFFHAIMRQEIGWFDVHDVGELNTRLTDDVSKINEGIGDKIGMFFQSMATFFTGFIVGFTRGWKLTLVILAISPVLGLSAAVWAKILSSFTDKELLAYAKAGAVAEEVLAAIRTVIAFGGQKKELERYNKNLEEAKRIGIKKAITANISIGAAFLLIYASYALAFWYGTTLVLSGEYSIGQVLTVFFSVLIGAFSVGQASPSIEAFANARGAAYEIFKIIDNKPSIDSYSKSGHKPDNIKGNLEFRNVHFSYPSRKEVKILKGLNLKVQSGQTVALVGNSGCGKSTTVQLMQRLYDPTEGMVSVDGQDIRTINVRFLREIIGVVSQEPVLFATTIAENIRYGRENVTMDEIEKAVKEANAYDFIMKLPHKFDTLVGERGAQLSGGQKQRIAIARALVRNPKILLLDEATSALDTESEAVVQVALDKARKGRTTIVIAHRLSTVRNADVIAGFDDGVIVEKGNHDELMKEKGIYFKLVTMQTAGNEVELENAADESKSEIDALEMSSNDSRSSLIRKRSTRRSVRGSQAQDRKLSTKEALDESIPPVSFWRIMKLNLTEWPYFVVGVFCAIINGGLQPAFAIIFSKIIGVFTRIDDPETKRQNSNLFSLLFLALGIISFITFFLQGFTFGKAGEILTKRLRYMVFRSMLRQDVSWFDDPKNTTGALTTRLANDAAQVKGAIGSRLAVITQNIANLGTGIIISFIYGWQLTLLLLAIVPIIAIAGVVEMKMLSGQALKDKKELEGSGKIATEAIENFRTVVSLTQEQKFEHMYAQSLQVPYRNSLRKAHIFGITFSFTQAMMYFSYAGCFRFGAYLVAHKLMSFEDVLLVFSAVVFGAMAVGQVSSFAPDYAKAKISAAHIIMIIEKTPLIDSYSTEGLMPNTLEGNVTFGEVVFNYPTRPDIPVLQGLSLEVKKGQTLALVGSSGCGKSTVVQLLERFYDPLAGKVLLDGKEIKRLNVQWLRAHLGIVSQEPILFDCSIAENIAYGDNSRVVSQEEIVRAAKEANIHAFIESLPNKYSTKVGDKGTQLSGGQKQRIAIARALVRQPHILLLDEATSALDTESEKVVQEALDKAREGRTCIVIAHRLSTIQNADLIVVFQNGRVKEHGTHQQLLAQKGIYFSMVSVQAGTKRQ
Sequence of human PDE2A1 (O00408 other isoform, or with tags, fused parts or gaps): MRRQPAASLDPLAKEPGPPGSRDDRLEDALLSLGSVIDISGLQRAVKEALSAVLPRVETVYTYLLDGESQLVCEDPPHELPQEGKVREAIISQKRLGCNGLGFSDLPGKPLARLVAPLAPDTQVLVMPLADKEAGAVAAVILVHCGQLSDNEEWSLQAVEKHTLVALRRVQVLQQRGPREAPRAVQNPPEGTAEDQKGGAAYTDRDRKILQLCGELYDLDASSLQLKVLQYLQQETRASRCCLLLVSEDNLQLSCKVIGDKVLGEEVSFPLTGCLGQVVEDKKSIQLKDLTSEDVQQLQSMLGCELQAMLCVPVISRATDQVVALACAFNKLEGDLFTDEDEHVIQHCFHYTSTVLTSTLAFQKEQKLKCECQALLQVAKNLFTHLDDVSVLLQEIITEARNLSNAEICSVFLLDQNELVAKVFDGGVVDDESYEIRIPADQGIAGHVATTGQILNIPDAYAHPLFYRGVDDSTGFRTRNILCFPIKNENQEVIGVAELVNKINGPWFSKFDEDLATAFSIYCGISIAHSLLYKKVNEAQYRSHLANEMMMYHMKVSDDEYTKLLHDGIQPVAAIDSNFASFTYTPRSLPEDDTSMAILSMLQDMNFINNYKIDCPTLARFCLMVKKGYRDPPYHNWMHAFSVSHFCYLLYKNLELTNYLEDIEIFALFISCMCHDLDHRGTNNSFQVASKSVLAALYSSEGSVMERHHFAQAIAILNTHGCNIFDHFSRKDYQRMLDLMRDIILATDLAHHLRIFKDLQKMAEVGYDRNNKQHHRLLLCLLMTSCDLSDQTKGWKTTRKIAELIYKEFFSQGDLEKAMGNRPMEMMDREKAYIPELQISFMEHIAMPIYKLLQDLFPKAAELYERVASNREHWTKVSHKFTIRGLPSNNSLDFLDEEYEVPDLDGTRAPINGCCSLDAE

Compound	efflux ratio at 1 μM [1]	Ki (Rhesus PDE2A3; [2]) [nM]	efflux ratio at 1 μM (P-glycoprotein (P-gp))	Ki (human PDE2A1; [3]) [nM]	Ki (Rhesus PDE2A3; [4]) [nM]	Ki (human PDE2A1; [5]) [nM]
O=C(N[C@@H](c1ccc(C(F)(F)F)cc1)C1CC1)c1cc(=O)[nH]c(N2CC[C@H](F)C2)n1 [Example 167, N-{(R)-cyclopropyl[4-(trifluoromethyl)phenyl]methyl}-2-[(3S)-3-fluoropyrrolidin-1-yl]-6-oxo-1,6-dihydropyrimidine-4-carboxamide]	27.4	1.4	1.9	2.3		
CC(C)[C@@H](NC(=O)c1cc(=O)[nH]c(N2CC[C@H](F)C2)n1)c1ccc(C(F)(F)F)c(F)c1 [Example 168, 2-[(3S)-3-fluoropyrrolidin-1-yl]-N-{(1R)-1-[3-fluoro-4-(trifluoromethyl)phenyl]-2-methylpropyl}-6-oxo-1,6-dihydropyrimidine-4-carboxamide]	21.2	0.5	4.1	0.47		

Other lines, results leading:

efflux ratio at 1 μM [1]	Ki (Rhesus PDE2A3; [2]) [nM]	efflux ratio at 1 μM (P-glycoprotein (P-gp))	Ki (human PDE2A1; [3]) [nM]	Ki (Rhesus PDE2A3; [4]) [nM]	Ki (human PDE2A1; [5]) [nM]	Compound
9.8	0.14	2.5	0.17			CC(C)(C)[C@@H](NC(=O)c1cc(=O)[nH]c(N2CC[C@H](F)C2)n1)c1ccc(C(F)(F)F)cc1 [Example 169, N-{(1R)-2,2-dimethyl-1-[4-(trifluoromethyl)phenyl]propyl}-2-[(3S)-3-fluoropyrrolidin-1-yl]-6-oxo-1,6-dihydropyrimidine-4-carboxamide]
1		0.4		58	52	CCCOc1nc(C(=O)N[C@H](C)c2ccc(C(F)(F)F)cc2)cc(=O)[nH]1 [Example 178, 6-oxo-2-propoxy-N-{(1R)-1-[4-(trifluoromethyl)phenyl]ethyl}-1,6-dihydropyrimidine-4-carboxamide]
7.9		1.2		29	23	CC(C)OCCCOc1nc(C(=O)NC(C)c2ccc(C(F)(F)F)cc2)cc(=O)[nH]1 (stereo not drawn) [Example 183, 2-[3-(1-methylethoxy)propoxy]-6-oxo-N-{1-[4-(trifluoromethyl)phenyl]ethyl}-1,6-dihydro pyrimidine-4-carboxamide]
8.4		1		~5.2	4.4	COc1ccc(OCCCOc2nc(C(=O)NC(C)c3ccc(C(F)(F)F)cc3)cc(=O)[nH]2)cc1 (stereo not drawn) [Example 194, 2-[3-(4-methoxyphenoxy)propoxy]-6-oxo-N-{1-[4-(trifluoromethyl)phenyl]ethyl}-1,6-dihydropyrimidine-4-carboxamide]
